# Data published in ChEMBL document CHEMBL1201862, “PubChem BioAssay data set” (2004).
#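 Values below derive from 48-hour exposures of cells grown in 96-well plates, with endpoints linearly interpolated between the two concentrations bracketing the appropriate inhibition level. GI50 marks 50% less growth.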 Calls of active or inactive are those of the source. No stated cut-off is given here; in the data, active = GI50 up to about 1.1 µM and inactive = higher.
# Legend:
# Test in all cases: NCI-60 cell line screen, 48 h
# [1] = tested on: M14
# [2] = tested on: CCRF-CEM
# [3] = tested on: LOX IMVI
# [4] = tested on: RXF 393
# [5] = tested on: ACHN
# [6] = tested on: SF-295
# [7] = tested on: HCT-15
# [8] = tested on: SK-MEL-2
# [9] = tested on: HCT-116
# [10] = tested on: 786-0
# [11] = tested on: SN12C
# [12] = tested on: COLO 205
# [13] = tested on: SK-OV-3
# [14] = tested on: SK-MEL-28
# [15] = tested on: TK-10
# [16] = tested on: MOLT-4
# [17] = tested on: HL-60
# [18] = tested on: NCI-H23
# [19] = tested on: OVCAR-4
# [20] = tested on: NCI-H460
Compound,GI50 [1],GI50 [2],GI50 [3],GI50 [4],GI50 [5],GI50 [6],GI50 [7] [µM],GI50 [8],GI50 [9],GI50 [10],GI50 [11],GI50 [12],GI50 [13],GI50 [14],GI50 [15],GI50 [16],GI50 [17],GI50 [18],GI50 [19],GI50 [20]
O=c1[nH]cnc2c(COCCCO)c[nH]c12,> 100 µM (inactive),> 100 µM (inactive),> 100 µM (inactive),> 100 µM (inactive),> 100 µM (inactive),> 100 µM (inactive),> 100,> 100 µM (inactive),> 100 µM (inactive),> 100 µM (inactive),> 100 µM (inactive),> 100 µM (inactive),> 100 µM (inactive),> 100 µM (inactive),> 100 µM (inactive),> 100 µM (inactive),> 100 µM (inactive),> 100 µM (inactive),,
Nc1ccc2cc(S(=O)(=O)O)cc(O)c2c1/N=N/c1ccc(NC(=O)Nc2ccc(/N=N/c3c(N)ccc4cc(S(=O)(=O)O)cc(O)c34)c(S(=O)(=O)O)c2)cc1S(=O)(=O)O,,> 69.3 µM (inactive),> 100 µM (inactive),> 100 µM (inactive),,> 100 µM (inactive),> 91.2,> 100 µM (inactive),> 100 µM (inactive),,> 100 µM (inactive),> 100 µM (inactive),> 100 µM (inactive),> 100 µM (inactive),,> 100 µM (inactive),44.4 µM (inactive),> 100 µM (inactive),> 84.1 µM (inactive),> 100 µM (inactive)
N#CCCN(CCN(CCC#N)C(=O)Nc1ccccc1)C(=O)Nc1ccccc1,> 100 µM (inactive),> 100 µM (inactive),> 100 µM (inactive),24.4 µM (inactive),> 100 µM (inactive),31.8 µM (inactive),> 100,> 100 µM (inactive),49.3 µM (inactive),75.5 µM (inactive),> 100 µM (inactive),> 100 µM (inactive),28.6 µM (inactive),> 100 µM (inactive),> 100 µM (inactive),> 100 µM (inactive),> 100 µM (inactive),61.4 µM (inactive),,68.5 µM (inactive)
CC1=C2c3ccccc3N(C(=O)/C=C/C(=O)O)[C@H]2[C@H]2C(=O)OC(=O)[C@H]2C1,> 10 µM (inactive),> 10 µM (inactive),,> 10 µM (inactive),> 10 µM (inactive),> 10 µM (inactive),> 10,> 10 µM (inactive),> 10 µM (inactive),,> 10 µM (inactive),> 10 µM (inactive),> 10 µM (inactive),> 10 µM (inactive),> 10 µM (inactive),> 10 µM (inactive),> 10 µM (inactive),> 10 µM (inactive),> 10 µM (inactive),> 10 µM (inactive)
Cn1nc(-c2ccccc2)c(C(=O)/C=C/c2ccccc2)c(N2CCCC2)c1=O,15.7 µM (inactive),7.8 µM (inactive),15.1 µM (inactive),6.59 µM (inactive),12.6 µM (inactive),,13.5,,5.94 µM (inactive),13.2 µM (inactive),20.7 µM (inactive),14.9 µM (inactive),22.7 µM (inactive),16.6 µM (inactive),22.5 µM (inactive),4.39 µM (inactive),4.34 µM (inactive),10.4 µM (inactive),,10.3 µM (inactive)
COc1cc(=O)oc(/C=C/C=O)c1C,17.9 µM (inactive),5.36 µM (inactive),5.2 µM (inactive),18.8 µM (inactive),19.2 µM (inactive),15.8 µM (inactive),,,5.21 µM (inactive),20.7 µM (inactive),8.24 µM (inactive),16.4 µM (inactive),27.2 µM (inactive),12.6 µM (inactive),31.2 µM (inactive),27.5 µM (inactive),13.5 µM (inactive),21.9 µM (inactive),17 µM (inactive),
c1ccc(C2N3CCCCC3[C@@H]3c4[nH]c5ccccc5c4CCN23)cc1 (some centres undefined),> 100 µM (inactive),28.6 µM (inactive),,47.3 µM (inactive),> 100 µM (inactive),> 100 µM (inactive),> 100,> 100 µM (inactive),64 µM (inactive),> 100 µM (inactive),> 100 µM (inactive),23.3 µM (inactive),> 100 µM (inactive),28 µM (inactive),> 100 µM (inactive),41.2 µM (inactive),22.1 µM (inactive),> 100 µM (inactive),29.5 µM (inactive),48.8 µM (inactive)
O=C(CCC(NC(=O)OCc1ccccc1)C(=O)OCc1ccccc1)Nc1cccc(OCc2ccccc2)c1 (centres undefined),20.4 µM (inactive),27.3 µM (inactive),19.3 µM (inactive),23.8 µM (inactive),29.7 µM (inactive),59.6 µM (inactive),18.3,,19.2 µM (inactive),17.7 µM (inactive),20.2 µM (inactive),15.7 µM (inactive),67.3 µM (inactive),40.4 µM (inactive),29.4 µM (inactive),26.4 µM (inactive),15.4 µM (inactive),20.3 µM (inactive),30.2 µM (inactive),23.6 µM (inactive)
O=C(NC1CCCCC1)NC12CC3CC(CC(F)(C3)C1)C2,> 100 µM (inactive),> 100 µM (inactive),> 100 µM (inactive),> 100 µM (inactive),> 100 µM (inactive),,,> 100 µM (inactive),> 100 µM (inactive),> 100 µM (inactive),,> 100 µM (inactive),> 100 µM (inactive),> 100 µM (inactive),85.3 µM (inactive),> 100 µM (inactive),> 100 µM (inactive),> 100 µM (inactive),,> 100 µM (inactive)
O=C1c2ccccc2C2(c3ccc(Cl)cc3)N[C@H]3CCCC[C@@H]3N12 (some centres undefined),,53.2 µM (inactive),> 100 µM (inactive),97.9 µM (inactive),> 100 µM (inactive),> 100 µM (inactive),> 100,,60.1 µM (inactive),95.1 µM (inactive),> 100 µM (inactive),> 100 µM (inactive),> 100 µM (inactive),> 100 µM (inactive),> 100 µM (inactive),36.7 µM (inactive),47.9 µM (inactive),> 100 µM (inactive),84.3 µM (inactive),
COC(=O)C1CCC(=O)C(Sc2ccccc2)C1 (centres undefined),> 100 µM (inactive),22.5 µM (inactive),> 100 µM (inactive),> 100 µM (inactive),> 100 µM (inactive),> 100 µM (inactive),> 100,,> 100 µM (inactive),,> 100 µM (inactive),> 100 µM (inactive),> 100 µM (inactive),> 100 µM (inactive),> 100 µM (inactive),27.6 µM (inactive),34 µM (inactive),> 100 µM (inactive),> 100 µM (inactive),> 100 µM (inactive)
